Residues, ends and D or L forms follow the SMILES beside them.
Tests used:
[1] = test system: A. baumannii RUH875 biofilm; experiment: Biofilm killing; format: cell-based, Acinetobacter baumannii; details: 24 h biofilm; for Concentration killing ≥3 log CFU of A. baumannii biofilm within 2 h: 2 h treatment in PBS, 1.88-120 μM, vs untreated biofilm; for Concentration giving complete eradication of A. baumannii biofilm, 24 h treatment: 24 h treatment in PBS
Method: Mid-logarithmic phase cultures of A. baumannii RUH875 or S. aureus JAR060131 were diluted to 1 × 10^8 CFU/mL in RPMI supplemented with 1% glucose. A total of 100 μL of each suspension was added to flat-bottom polystyrene 96-well microplates (Costar) and incubated under static conditions at 37 °C in a humidified atmosphere for 24 h to allow biofilm formation. After 24 h, planktonic bacteria were removed, and wells were carefully washed with 100 μL PBS [60]. […] Control samples were exposed to 100 μL of PBS only.
Biofilms were treated at 37 °C for either 2 or 24 h. […] Plates were sealed and sonicated for 5 min (Elmasonic, Singen, Germany; 45 kHz) at room temperature to dislodge adherent bacteria. […] Quantitative cultures were performed by plating serial 10-fold dilutions on sheep blood agar, and results were expressed as log10 CFU per well. The lower limit of detection was three CFU. Each condition was tested in six replicates.

[2] = test system: S. aureus JAR060131; experiment: SYTOX Green membrane permeabilization assay; format: cell-based, Staphylococcus aureus; details: RPMI, 1 μM SYTOX Green; 90 min; 37 °C
Method: Control samples were exposed to RPMI only. As a positive control, heat-killed bacteria were incubated at 95 °C for 10 min to induce maximum membrane permeabilization. Fluorescence (excitation: 485 nm, emission: 520 nm) was monitored every minute for 90 min at 37 °C using a […] plate reader (Ortenberg, Germany), with peptides and positive controls added after the third cycle. Background fluorescence (SYTOX Green alone) was subtracted from all values. All assays were performed in triplicate and repeated twice independently.

[3] = test system: A. baumannii RUH875; format: cell-based; details: for LC99.9 A. baumannii RUH875 50% Plasma 18 h: RUH875, 18 h
Method: (§1) The bacterial strains used in this study included S. aureus JAR060131 [54] and the MDR ESKAPE pathogens Enterococcus faecium LUH15122, S. aureus LUH14616, Klebsiella pneumoniae LUH15104, A. baumannii RUH875 [55], Pseudomonas aeruginosa LUH15103, Enterobacter cloacae LUH15114, and the colistin-resistant Escherichia coli LUH15117. Before each experiment, bacteria from frozen stocks were cultured at 37 °C for 18–24 h on sheep blood agar plates (BioMérieux, Marcy-l’Étoile, France). All strains were then cultured from colonies either in tryptic soy broth (TSB; Oxoid, Basingstoke, UK) for A. baumannii, S. aureus, and E. faecium, or in brain heart infusion broth (BHI; Oxoid) for K. pneumoniae, P. aeruginosa, E. cloacae, and E. coli at 37 °C with shaking at 120 rpm for 18–24 h. Subsequently, bacteria were cultured to mid-logarithmic phase in the media described above at 37 °C with shaking at 120 rpm for 3 h. Bacteria were then washed twice with PBS and diluted to the required inoculum suspension concentration in Roswell Park Memorial Institute (RPMI)-1640 medium containing 20 mM HEPES and L-glutamine but without sodium bicarbonate (Sigma-Aldrich; hereafter referred to as RPMI), based on optical density at 620 nm. RPMI was selected because it supports bacterial growth without impairing AMP activity.
(§2) Bactericidal activity was assessed as described by de Breij et al.. Briefly, mid-logarithmic phase bacterial cultures were diluted to a final concentration of 1 × 10^7 colony-forming units (CFU)/mL in RPMI. Then, 10 µL was added to a final volume of 100 µL in RPMI (final concentration: 1 × 10^6 CFU/mL). Cultures were exposed to peptides either in RPMI or RPMI supplemented with 50% (v/v) human plasma (hereafter referred to as 50% plasma), obtained from four healthy volunteers after informed consent, frozen after collection, and pooled (Sanquin, Amsterdam, The Netherlands). Assays were performed in duplicate using round-bottom polypropylene microtiter plates (Costar, Arlington, VA, USA) and repeated three times. In the initial screening phase (Table 1, Table 2 and Table S1), peptide solutions of 1, 10, and 100 μM (final concentration) were tested against A. baumannii RUH875 and S. aureus JAR060131 in RPMI and in 50% plasma. After this selection process, two lead candidates, their RI variants, and reference peptides were tested with a final concentration range of 0.12 to 120 µM (two-fold dilutions) in RPMI and in 50% plasma (Table 3). The peptides were also tested against ESKAPE pathogens, with Synthetic Antimicrobial and Antibiofilm Peptide (SAAP)-148 as a reference peptide (Table 4).RPMI or 50% plasma served as no-treatment controls. After 2 and 18 h of incubation at 37 °C with shaking at 120 rpm in a humidified environment, the numbers of viable bacteria were quantified. Bactericidal activity was expressed as the lethal concentration 99.9% (LC99.9), defined as the lowest peptide concentration that killed ≥99.9% of bacteria within 2 h (LC99.9_2h) or 18 h (LC99.9_18h) compared to the initial inoculum.

[4] = test system: E. faecium LUH15122; format: cell-based; details: for LC99.9 E. faecium LUH15122 50% Plasma 18 h / LC99.9 E. faecium LUH15122 RPMI 18 h: LUH15122, 18 h
Method: as §1, §2

[5] = test system: E. coli LUH15117; format: cell-based; details: for LC99.9 E. coli LUH15117 RPMI 2 h: LUH15117, 2 h; for LC99.9 E. coli LUH15117 RPMI 18 h: LUH15117, 18 h
Method: as §1, §2

[6] = test system: MDR ESKAPE pathogens; experiment: Bactericidal activity (LC99.9), statements for the whole panel; format: cell-based
Method: as §1, §2

[7] = test system: BJ human skin fibroblast cells; experiment: WST-1 metabolic activity assay (cell viability); details: lowest concentration causing <70% metabolic activity (WST-1); BJ fibroblasts; 24 h; DMEM with 2% FBS; 0.05-60 µM
Method: BJ human skin fibroblast cells (ATCC CRL-2522; RRID: CVCL_3653; LGC Standards, Germany (September 2023)) were cultured in Dulbecco’s Modified Eagle Medium (DMEM; Gibco, Waltham, MA, USA) supplemented with 10% (v/v) foetal bovine serum (FBS; Sigma-Aldrich) and 1% (v/v) penicillin/streptomycin (pen/strep; Gibco). Cell suspensions (5 × 10^5 cells/mL) were seeded into 96-well plates (100 μL/well; Thermo Scientific, Waltham, MA, USA) and allowed to adhere for 24 h. Monolayers were then exposed to two-fold serial dilutions of GDST peptides, their RI variants, and reference peptides (final concentrations: 0.05 to 60 µM) in fresh DMEM with 2% (v/v) FBS for 24 h at 37 °C in a humidified atmosphere with 5% CO2.
Cell viability and membrane integrity were assessed using the water-soluble tetrazolium salt (WST-1; Roche, Basel, Switzerland) assay and the lactate dehydrogenase (LDH; Abcam, Cambridge, UK) assay, respectively, according to manufacturer instructions. Results were expressed as percentages of metabolic activity and LDH leakage relative to untreated control cells and the positive lysis control, respectively. The cytotoxic concentration was defined as the lowest peptide concentration causing <70% metabolic activity and >30% LDH leakage. All experiments were performed in triplicate.

Structure (SMILES)	Concentration killing ≥3 log CFU of A. baumannii biofilm within 2 h [1] [µM]	Concentration giving complete eradication of A. baumannii biofilm, 24 h treatment [1] [µM]	Concentrations causing rapid rise in SYTOX fluorescence, S. aureus [2] [µM]	LC99.9 A. baumannii RUH875 50% Plasma 2 h ([3]; RUH875, 2 h) [µM]	LC99.9 A. baumannii RUH875 50% Plasma 18 h [3] [µM]	LC99.9 E. faecium LUH15122 50% Plasma 2 h ([4]; LUH15122, 2 h) [µM]	LC99.9 E. faecium LUH15122 RPMI 2 h ([4]; LUH15122, 2 h) [µM]	LC99.9 E. faecium LUH15122 50% Plasma 18 h [4] [µM]	LC99.9 E. faecium LUH15122 RPMI 18 h [4] [µM]	LC99.9 E. coli LUH15117 RPMI 2 h [5] [µM]	LC99.9 E. coli LUH15117 RPMI 18 h [5] [µM]	Concentrations killing ESKAPE pathogens in 50% plasma within 2 h ([6]; 50% plasma, 2 h, range over species) [µM]	Concentrations killing ESKAPE pathogens in 50% plasma after 18 h ([6]; 50% plasma, 18 h, range over species) [µM]	Concentrations killing ESKAPE pathogens in RPMI within 2 h ([6]; RPMI, 2 h, range over species) [µM]	Cytotoxicity Metabolic Activity <70% [7] [µM]	Concentrations required for E. cloacae, S. aureus and P. aeruginosa in 50% plasma within 2 h ([6]; 50% plasma, 2 h, range over the three species) [µM]
CC[C@@H](C)[C@@H](NC(=O)[C@@H](CC(C)C)NC(=O)[C@@H](CCCCN)NC(=O)[C@@H](CCCCN)NC(=O)[C@H](NC(=O)[C@@H](Cc1c[nH]c2ccccc12)NC(=O)[C@@H](CCCNC(=N)N)NC(=O)[C@@H](Cc1ccccc1)NC(=O)[C@@H](CC(C)C)NC(C)=O)C(C)C)C(=O)N[C@H](CCCCN)C(=O)N[C@@H](C(=O)N[C@H](Cc1c[nH]c2ccccc12)C(=O)N[C@H](CCCNC(=N)N)C(=O)N[C@H](CCCCN)C(N)=O)C(C)C [GDST-045-RI] (HELM PEPTIDE1{[ac].[dL].[dF].[dR].[dW].[dV].[dK].[dK].[dL].[dI].[dK].[dV].[dW].[dR].[dK].[am]}$$$$V2.0; N-terminus and C-terminus assumed)	≥ 30	120	1.88 to 3.75	1.88	0.94	1.88	0.94	3.75	0.94	3.75	1.88	0.94 to 120	0.94 to 30	0.94 to 15	3.75	
CC[C@@H](C)[C@@H](NC(=O)[C@@H](C)NC(=O)[C@@H](CCCCN)NC(=O)[C@@H](CCCCN)NC(=O)[C@@H](Cc1c[nH]c2ccccc12)NC(=O)[C@@H](Cc1c[nH]c2ccccc12)NC(=O)[C@@H](CCCNC(=N)N)NC(=O)[C@@H](CC(C)C)NC(=O)[C@@H](CC(C)C)NC(C)=O)C(=O)N[C@H](CCCCN)C(=O)N[C@@H](C(=O)N[C@H](Cc1c[nH]c2ccccc12)C(=O)N[C@H](CCCNC(=N)N)C(=O)N[C@H](CCCCN)C(N)=O)C(C)C [GDST-038-RI] (HELM PEPTIDE1{[ac].[dL].[dL].[dR].[dW].[dW].[dK].[dK].[dA].[dI].[dK].[dV].[dW].[dR].[dK].[am]}$$$$V2.0; N-terminus and C-terminus assumed)	60	≥ 60	1.88 to 3.75		0.94		3.75	3.75	0.94	3.75	0.94				3.75	30 to 60
